Measured values as given in EP0654473A1, “Cyclopropane derivatives and antiviral agents containing the same” (Ajinomoto Co., Inc., priority 1993, dated 1995).
Where a name gives a salt, the structure may show the parent alone.

Columns and labels:
[1] = Measurement of oral absorbability (plasma AUC after oral administration); details: in vivo, 0.1 mmol/kg in physiological saline, male ICR mouse, plasma concentration of 9-[1'S,2'R-bis(hydroxymethyl)cyclopropan-1'-yl]methylguanine by HPLC, 15 minutes to 4 hours
Procedure: Each of the test compounds was dissolved in 0.2 ml of physiological saline and orally administered to 5-week-age male ICR mouse in a dose of 0.1 mmol/kg. After 15 minutes, 30 minutes, 1 hour, 2 hours, or 4 hours from the administration, blood was collected from three mice, respectively, and centrifuged at 3,000 rpm for 10 minutes to obtain a plasma. A 20 % trichloroacetic acid aqueous solution (100 µl) was added to the plasma (100 µl), and the resulting mixture was shaken and then centrifuged at 8,000 rpm for 1 minutes to obtain a supernatant. The concentration of 9-[1'S,2'R-bis(hydroxymethyl)cyclopropan-1'-yl]methylguanine in the supernatant was measured by HPLC and the area under the blood concentration time curve (AUC) was calculated.

HSV-1 (Tomioka strain) = test: Efficacy test by oral administration in HSV-1 infected mice; assay type: in vivo, CDF-1 mouse; set-up: Survival Ratio after 21 days: unit: %; details: for Average Survival days / Survival Ratio after 21 days: HSV-1 i.p. infected CDF-1 mice; for Survival Ratio after 21 days: 10 mice per group
Procedure: A 4-week-age male CDF-1 mouse was intraperitoneally infected with HSV-1 (Tomioka strain) in an amount of 2.4 × 10⁵ pfu/mouse. Three hours after the infection, administration of each test compound was started. The test compound was dissolved in 0.2 ml of distilled water for injection use and intragastrically administered via catheter once a day for 5 days in a dose of 0.625, 1.25, or 2.5 µmol/kg/day. Each of the test groups consisted of 10 mice, and the survival ratio after 21 days from the administration and the average survival days were obtained.

[2] = 0.625 µmol/kg/day intragastrically once a day for 5 days
[3] = 1.25 µmol/kg/day intragastrically once a day for 5 days
[4] = 2.5 µmol/kg/day intragastrically once a day for 5 days

With `Nc1nc2c(ncn2C[C@]2(CO)C[C@H]2CO)c(=O)[nH]1` [9-[1'S,2'R-bis(hydroxymethyl)cyclopropan-1'-yl]methylguanine] the AUC at 4 h [1] was 16 µM·h, the “Average Survival days” value (HSV-1 (Tomioka strain); [2]) was 7.8 ± 1.2 days and the “Survival Ratio after 21 days” value (HSV-1 (Tomioka strain); [2]) was 0. The “Average Survival days” value (HSV-1 (Tomioka strain); [3]) was 9.4 ± 1.9 days, the “Survival Ratio after 21 days” value (HSV-1 (Tomioka strain); [3]) was 0 and the “Average Survival days” value (HSV-1 (Tomioka strain); [4]) was 11.3 ± 3.1 days. For the same molecule, the “Survival Ratio after 21 days” value (HSV-1 (Tomioka strain); [4]) was 60.

With `C[C@H](N)C(=O)OC[C@@H]1C[C@@]1(COC(=O)[C@H](C)N)Cn1cnc2c(=O)[nH]c(N)nc21` [Compound of Example 1, 9-[1'S,2'R-bis(O-L-alanyloxymethyl)cyclopropan-1'-yl]methylguanine trihydrochloride] the “Average Survival days” value (HSV-1 (Tomioka strain); [2]) was 9.7 ± 2.7 days, the “Survival Ratio after 21 days” value (HSV-1 (Tomioka strain); [2]) was 40 and the “Average Survival days” value (HSV-1 (Tomioka strain); [3]) was 14.3 ± 4.1 days. The “Survival Ratio after 21 days” value (HSV-1 (Tomioka strain); [3]) was 60, the “Survival Ratio after 21 days” value (HSV-1 (Tomioka strain); [4]) was 100 and the efficacy (HSV-1 (Tomioka strain); in words, compared with 9-[1'S,2'R-bis(hydroxymethyl)cyclopropan-1'-yl]methylguanine) was “superior efficacy”.
